Several values for one entry are separate records, joined by “and”; a condition that tells them apart may be missing. Equal values may be shown once.
Test: solvent given as SMILES

## CN(C)c1ccc2nc(-c3ccc(C=C4C(=O)c5ccccc5C4=O)cc3)sc2c1
In C1CCCCC1
  fluorescence lifetime: 0.41 ns

## CC(C)(C)c1ccc2c(c1)-c1c3c(c4c5c1-c1cc(C(C)(C)C)ccc1OB5Oc1ccc(C(C)(C)C)cc1-4)-c1cc(C(C)(C)C)ccc1OB3O2
In ClCCl
  fluorescence lifetime: 3.96 ns

## COc1ccc(-c2cc3c(s2)c(C(C)=O)cc(=O)n3Cc2ccccc2)cc1
In ClCCl
  fluorescence lifetime: 1.94 ns

## COc1cc(OC)c2c(c1)c1cc3oc(=O)cc(C)c3cc1c1cc(OC)cc(OC)c12
In ClC(Cl)Cl
  fluorescence lifetime: 7.5 ns

## c1cc2c3ccc[n+]4cccc(c5ccc[n+](c1)c25)c34
In CC#N
  fluorescence lifetime: 7.4 ns
In CS(C)=O
  fluorescence lifetime: 4.4 ns
In C[N+](=O)[O-]
  fluorescence lifetime: 6.2 ns
In O
  fluorescence lifetime: 6.8 ns

## c1ccc(N(c2ccccc2)c2ccc(-c3ccc(-c4cc(-c5ccccn5)nc(-c5ccccn5)c4)cc3)cc2)cc1
In ClCCl
  fluorescence lifetime: 2.68 ns

## Cn1ccc(-n2cncn2)nc1=O
In O
  fluorescence lifetime: 3.43 ns

## C(#Cc1ccc2c(c1)c1cc(C#Cc3ccccc3)ccc1n2-c1cc2ccccc2c2ccccc12)c1ccccc1
In ClCCl
  fluorescence lifetime: 4.27 ns

## Cc1ccc2cc(C)ccc2c1
In C1CCCCC1
  fluorescence lifetime: 64 ns

## Cc1ccc2c(c1)c(=O)c1ccccc1n2CCCCCC(=O)O
In O
  fluorescence lifetime: 15.1 ns

## C(=C\c1cc2ccccc2c2ccccc12)/c1cc2ccccc2c2ccccc12
In C1CCOC1
  fluorescence lifetime: 1.72 ns

## N#Cc1nc(-c2ccc(N3c4ccccc4Oc4ccccc43)cc2)c(-c2ccc(N3c4ccccc4Oc4ccccc43)cc2)nc1C#N
In c1cc(-c2cccc(-n3c4ccccc4c4ccccc43)c2)cc(-n2c3ccccc3c3ccccc32)c1
  fluorescence lifetime: 21 ns

## Cc1cc2nc3c(=O)n(C)c(=O)nc-3n(C)c2cc1C
In CC#N
  fluorescence lifetime: 7.1 ns and 6.9 ns

## Cc1cc2c(o1)c(C)cc1ccc(=O)oc12
In C1CCCCC1
  fluorescence lifetime: 0.02 ns
In C1COCCO1
  fluorescence lifetime: 0.02 ns
In CC#N
  fluorescence lifetime: 0.02 ns
In CCO
  fluorescence lifetime: 2.3 ns
In OCC(F)(F)F
  fluorescence lifetime: 2.8 ns

## COc1ccc(C#CC2=C3CCc4ccccc4C3=[O+][B-](F)(F)O2)cc1
In ClCCl
  fluorescence lifetime: 1.49 ns

## N#Cc1ccc(/C=C/c2c3ccccc3cc3ccccc23)cc1
In C1CCOC1
  fluorescence lifetime: 0.82 ns
In CC1CCCCC1
  fluorescence lifetime: 3.01 ns
In CC#N
  fluorescence lifetime: 0.68 ns
In CO
  fluorescence lifetime: 0.6 ns
In Cc1ccccc1
  fluorescence lifetime: 2.12 ns
In ClC(Cl)Cl
  fluorescence lifetime: 0.82 ns

## CC(=O)Nc1cc2ccc3cccc4ccc(c1)c2c34
In CCCCCCC
  fluorescence lifetime: 108 ns

## COC(C)CC1=N/C(=C\c2cccc(N(C)C)c2)C(=O)N1C (configuration not stated)
In C1CCOC1
  fluorescence lifetime: 15.3 ns
In CC#N
  fluorescence lifetime: 7.7 ns
In CCCCCC
  fluorescence lifetime: 22.4 ns

## COc1ccc(/C=C/C2=[O+][B-](F)(F)OC(/C=C/c3ccc(OC)cc3)=C2c2ccccc2)cc1
In CC#N
  fluorescence lifetime: 1.5 ns
In CC(C)=O
  fluorescence lifetime: 1.43 ns
In CCOC(C)=O
  fluorescence lifetime: 1.18 ns
In CCOCC
  fluorescence lifetime: 0.9 ns
In ClC(Cl)(Cl)Cl
  fluorescence lifetime: 0.7 ns
In ClCCl
  fluorescence lifetime: 1.35 ns

## CCc1cc(CC)cc(-n2c3ccccc3c3cc4c(cc32)c2ccccc2n4-c2cc(CC)cc(CC)c2)c1
In ClC(Cl)Cl
  fluorescence lifetime: 3.69 ns

## N#Cc1ccc(C2=Cc3ccccc3P2(=O)c2ccccc2)cc1 (configuration not stated)
In ClCCl
  fluorescence lifetime: 4.8 ns

## CC1=[N+]2C(=C(c3ccc(C(=O)c4ccccc4)cc3)c3ccc(C)n3[B-]2(F)F)C=C1c1cc2n(c1)[B-](F)(F)[N+]1=CC=CC1=C2c1c(C)cc(C)cc1C
In C1CCCCC1
  fluorescence lifetime: 2.9 ns
In CCOC(C)=O
  fluorescence lifetime: 0.92 ns

## CCn1c2ccccc2c2cc3c(cc21)c1ccccc1n3CC
In ClC(Cl)Cl
  fluorescence lifetime: 2.9 ns

## CCCCCCCCC1(CCCCCCCC)c2ccccc2-c2ccc(-c3nnc(-c4cccc(-n5c6ccc(C(C)(C)C)cc6c6cc(C(C)(C)C)ccc65)c4)o3)cc21
In Cc1ccccc1
  fluorescence lifetime: 7.65 ns

## CCCCN1C(=O)c2cc(Br)c3c4c(Br)c(Br)c5c6c(cc(Br)c(c7c(Br)c(Br)c(c2c37)C1=O)c64)C(=O)N(CCCC)C5=O
In ClC(Cl)Cl
  fluorescence lifetime: 1.1 ns

## c1ccc(-c2ccnc(-c3ccccc3)n2)cc1
In ClC(Cl)Cl
  fluorescence lifetime: 0.6 ns

## CCN(CC)c1ccc2cc(/C(Cl)=C/C=C/C(=C(C#N)C#N)c3ccc(N(c4ccccc4)c4ccccc4)cc3)c(=O)oc2c1
In CC(C)=O
  fluorescence lifetime: 1.51 ns
In CCOC(C)=O
  fluorescence lifetime: 2.42 ns
In CN(C)C=O
  fluorescence lifetime: 0.21 ns
In CS(C)=O
  fluorescence lifetime: 0.18 ns
In Cc1ccccc1
  fluorescence lifetime: 1.95 ns
In ClCCl
  fluorescence lifetime: 1.56 ns

From the Deep4Chem optical property database
